Results: patent US9387235B2, “Cosmetic preparations containing PTH fragments” (BASF Beauty Care Solutions France S.A.S., priority 2004, dated 2016)
No end group written: not given here.

What was measured:
[1] = tested on: protein kinase C (PKC); conditions: osteosarcoma cells of ROS 17/2 rats; Jouishomme et al. 1992, 1994; cited from earlier work
[2] = tested on: lumican; assay: Stimulation of the synthesis of lumican on aged human dermal fibroblasts (immunocytochemistry, image analysis); assay type: cell-based; conditions: aged human dermal fibroblasts in culture
Protocol: Human dermal fibroblasts cell suspension were prepared by standard digestion by collagenase of human adult dermis specimens collected from plastic surgery.
After repeated passages (Hayflick model) to mimic ageing in vitro, human dermal fibroblasts were seeded in DMEM for 2 days at 37° C., CO2=5%. Then, acetyl-QDVH (1 and 3 μg/ml) is introduced and after 6 days of incubation at 37° C., CO2=5%, the expression of the lumican synthesis was evaluated on glass slides by immunocytochemistry.
Quantification of the staining was carried out by image analysis.
The results are expressed as the sum of the product of number of pixels by green detected values (arbitrary unit).

[3] = tested on: collagen type I; assay: Collagen type I gene expression in human dermal fibroblasts (quantitative RT-PCR); assay type: cell-based; conditions: for Ratio versus calibrator (collagen type I mRNA): incubation for 1 day, EF1α reference gene; for rate of collagen type I gene expression (in words): human dermal fibroblasts
Protocol: Human dermal fibroblasts are seeded and incubated for 3 to 5 days at 37° C., CO2=5%.
After exchange of cell culture medium to a defined cell culture medium with the products to be tested, incubation for 1 day at 37° C., CO2=5%. The recovering of cells and numeration before recovering of RNA from human dermal fibroblasts cultured in vitro.
The level of mRNA encoding the collagen type I was evaluated by quantitative RT-PCR or real time RT-PCR.
The results are firstly expressed by the crossing point (CP) which refers to the number of cycle required for the rising of a distinct fluorescence. Then the results of each sample, are calculated as a ratio referring to a reference gene or “house keeping” gene: CP of target/CP of reference gene. EF1α gene was used as internal control gene to normalise the mRNA evaluation.

[4] = tested on: human dermis fibroblasts; assay: Effects on the growth of human dermis fibroblasts (DNA cell content, Hoechst 33258); assay type: cell-based; conditions: for DNA after culture for 3 days / DNA after culture for 6 days: % relative to control medium, mean of four tests in triplicate
Protocol: The object of this test is to examine the regenerating and revitalising activities of cultures of human dermis fibroblasts in vitro.
Human dermis fibroblasts were incubated in a standard medium for cell cultures with foetal calf serum (FCS). After culture for one day at 37° C. and with a 5% content of CO2, the medium was changed for a standard medium with different concentrations of peptides. After further incubation for three days and six days, the number of living cells was established by establishing the DNA cell content with a fluorescent probe (Hoechst 33258).

[5] = tested on: human dermal fibroblast; assay: Human dermal fibroblast mRNA profile on cDNA-array (Panhuman 10K); assay type: cell-based; conditions: for Expression evolution / Log2 (treated/non-treated): 5 μg/ml
Protocol: The aim of this study is to detect the variation of mRNA profile of human dermal fibroblast induced by treatment with the PTH(29-32) peptide fragment.
Normal human dermal fibroblast were cultured in standard medium supplemented with foetal calf serum (FCS) during three days in a 5% CO2 atmosphere. After cultures, the medium was changed by a standard medium either supplemented with PTH(29-32) peptide fragment at 5 μg/ml or not. After an incubation of either 3 or 24 hours, cultures were arrested and total RNAs of the different cultures were extracted. The cDNAs obtained from peptide-treated RNAs or from non-treated RNAs were labelled with cyanine-3 and cyanine-5, respectively.
Mixture of treated and non-treated cDNAs were hybridised on commercially Panhuman® 10K (MW Biotech, Roissy Charles-de-Gaulle, France) cDNA-array allowing to study near to 10,000 gene expressions. After highly stringent washing, cyanine-3 and cyanine-5 fluorescences were measured, allowing to evaluate a […] expression ratio of each analyzed gene.
Results are expressed as Log2 of the ratio between the measured expression of genes in the treated vs non-treated conditions.

[6] = col1a1, alpha 1 type i collagen, 3 h incubation
[7] = cspg2, chondroitin sulfate 2 (versican), 3 h incubation
[8] = cspg2, chondroitin sulfate 2 (versican), 24 h incubation
[9] = ctgf, connective tissue growth factor, 3 h incubation
[10] = ctgf, connective tissue growth factor, 24 h incubation
[11] = fgf2, fibroblast growth factor 2, 3 h incubation
[12] = gpc1, glypican 1 precursor, 3 h incubation
[13] = gpc1, glypican 1 precursor, 24 h incubation
[14] = itga2b, integrin alpha 2b, 3 h incubation
[15] = itgb4, integrin, beta 4, 24 h incubation
[16] = itgb5, integrin, beta 5, 3 h incubation
[17] = itgb5, integrin, beta 5, 24 h incubation
[18] = nid, nidogen (enactin), 3 h incubation
[19] = nid, nidogen (enactin), 24 h incubation
[20] = tgfbr3, transforming growth factor, beta receptor III (betaglycan), 3 h incubation
[21] = tgfbr3, transforming growth factor, beta receptor III (betaglycan), 24 h incubation
[22] = thbs1, thrombospondin 1, 24 h incubation
[23] = timp1, tissue inhibitor of metalloproteinase 1, 3 h incubation

Substance: Leu-Gln-Asp-Val-His-Asn-Phe (LQDVHNF; Fragment of a parathyroid hormone) [PTH region (28 to 34)]
- activation of protein kinase C (in words) [1]: stimulator of the protein kinase C (PKC)

Substance: IL-4: IL4 (positive control) obtained from SIGMA [reference compound]
- lumican expression (in words) [2]: increase of lumican expression

Substance: acetyl-Gln-Asp-Val-His (Ac-QDVH) [Acetyl-QDVH, acetylated PTH (29-32) peptide fragment]
- lumican expression (in words) ([2]; listed as acetyl-Gln-Asp-Val-His): increase of lumican expression
- lumican expression (in words) ([2]; listed as acetyl-QDVH): significantly stimulated the expression of lumican with a dose-dependent effect
- Ratio versus calibrator (collagen type I mRNA) ([3]; 3 μg/ml): 1.05
- Ratio versus calibrator (collagen type I mRNA) ([3]; 10 μg/ml): 1.18
- rate of collagen type I gene expression (in words) [3]: significantly enhanced

Substance: TGFβ [reference compound]
- Ratio versus calibrator (collagen type I mRNA) ([3]; 10 ng/ml): 2.12
- rate of collagen type I gene expression (in words) [3]: strongly enhanced

Substance: Gln-Asp-Val-His (QDVH; Fragment of a parathyroid hormone)
- growth of human dermis fibroblasts (in words) ([4]; fibroblasts cultivated from biopsies of healthy adult subjects): stimulates the growth of human dermis fibroblasts
- DNA after culture for 3 days ([4]; peptide 0.001 %): 162%
- DNA after culture for 6 days ([4]; peptide 0.001 %): 119%
- DNA after culture for 3 days ([4]; peptide 0.003 %): 155%
- DNA after culture for 6 days ([4]; peptide 0.003 %): 115%
- persistence of growth-stimulating activity (in words) ([4]; without any change in the cell culture medium): still detectable after 6 days
- Expression evolution ([5]; bgn, biglycan, 3 h incubation): increase
- Log2 (treated/non-treated) ([5]; bgn, biglycan, 3 h incubation): 2.16
- Expression evolution ([5]; bgn, biglycan, 24 h incubation): increase
- Log2 (treated/non-treated) ([5]; bgn, biglycan, 24 h incubation): 0.66
- Expression evolution [5, 6]: increase
- Log2 (treated/non-treated) [5, 6]: 0.93
- Expression evolution [5, 7]: increase
- Log2 (treated/non-treated) [5, 7]: 1.32
- Expression evolution [5, 8]: increase
- Log2 (treated/non-treated) [5, 8]: 1.20
- Expression evolution [5, 9]: increase
- Log2 (treated/non-treated) [5, 9]: 0.77
- Expression evolution [5, 10]: increase
- Log2 (treated/non-treated) [5, 10]: 0.74
- Expression evolution [5, 11]: increase
- Log2 (treated/non-treated) [5, 11]: 0.86
- Expression evolution [5, 12]: no variation
- Log2 (treated/non-treated) [5, 12]: −0.17
- Expression evolution [5, 13]: increase
- Log2 (treated/non-treated) [5, 13]: 0.73
- expression of fibroblast genes (in words) ([5]; growth factors, extra-cellular matrix components, DEJ components): stimulates the expression of some genes
- Expression evolution [5, 14]: increase
- Log2 (treated/non-treated) [5, 14]: 0.50
- Log2 (treated/non-treated) ([5]; itga2b, integrin alpha 2b, 24 h incubation): 0.15
- Expression evolution [5, 15]: increase
- Log2 (treated/non-treated) [5, 15]: 1.15
- Expression evolution [5, 16]: no variation
- Log2 (treated/non-treated) [5, 16]: 0.05
- Expression evolution [5, 17]: increase
- Log2 (treated/non-treated) [5, 17]: 0.68
- Expression evolution [5, 18]: increase
- Log2 (treated/non-treated) [5, 18]: 1.76
- Expression evolution [5, 19]: increase
- Log2 (treated/non-treated) [5, 19]: 0.58
- Expression evolution [5, 20]: increase
- Log2 (treated/non-treated) [5, 20]: 2.00
- Expression evolution [5, 21]: increase
- Log2 (treated/non-treated) [5, 21]: 1.54
- Expression evolution [5, 22]: increase
- Log2 (treated/non-treated) [5, 22]: 1.52
- Expression evolution [5, 23]: increase
- Log2 (treated/non-treated) [5, 23]: 0.15
- Log2 (treated/non-treated) ([5]; timp1, tissue inhibitor of metalloproteinase 1, 24 h incubation): −0.25
- activation of protein kinase C (in words) [1]: minimum domain of PTH in a position to function fully in the activation of PKC
